Experimental data reported in US8318815B2, “Method for treatment of tumors using nordihydroguaiaretic acid derivatives” (priority 1999, dated 2012).
Values joined by “and” are separate entries in the source; they are usually repeats but may differ in a detail not shown here. Identical values can stand only once. Marks after values point to notes of the source that are not given here.

How the values were obtained:
C3 tumor [1] = test: C3 tumor growth in mice, local (intratumoral) injection; type: in vivo
Method: Thirty six C57b1-16 NCR mice were injected with 5×10^5 C3 cells between the shoulders on the backs of the mice. Twenty four of the mice developed tumors within 20 days. […]
36 C57b1-16NCR mice were injected with 5×10^5 C3 cells/mouse. Injections were 100 μL made subcutaneously between the shoulders on the backs of the mice. Cells were suspended in low-salt HBSS and suspension uniformity was maintained by gentle vortexing.
24 mice developed tumors. Their lesion sizes were measured by dial caliper. These mice were shaved, weight and treatment begun (Day 1). Four were sequestered as controls. Control mice received 50 μl DMSO injected intratumorally daily. […]. Injections were made to several regions of tumor. Mice anesthetized with ether or metaphane prior to injection.
The treatment regimen and results were as follows: • Day 10: Mice weighed again. […]. The skin at the lesion site of #17 cracked with the “dried-out tumor” showing. It was dissected, and lesion excised and weighed. […]. Remaining control mice (#1, 3, 4) were examined non-invasively and were carrying tumors. • Day 21: Tumor sizes from control mice were measured by dial caliper. […]. […]

C3 tumor [2] = test: Histopathology of excised C3 tumors; type: in vivo, mice; details: hematoxylin and eosin sections
Method: Drug treated (M4N) and DMSO vehicle-treated or untreated tumors (CON) from two groups of mice were prepared for histopathology examination. The excised tumors were immediately fixed and then stored in 4% formaldehyde in phosphate buffered saline. The fixed tissue was then dehydrated through a series of graded alcohols and xylene and embedded in paraffin. The paraffin tissue blocks were thin sectioned and stained for microscopy with hematoxylin and eosin. […] They show the high nuclear/cytoplasmic ratio, pleomorphic nuclear changes, high mitotic figures, spindle like sarcoma shape, and infiltration into the surrounding tissue characteristic of cancer cells.

TC-1 cell line = test: TC-1 cell growth; details: TC-1 cells
Method: (§1) FIG. 9. […] (a-d) C3, CEM-T4, C33a, and TC-1 cells were treated with different concentrations of M4N. The number of cells present at the initiation of the experiment is indicated as Day 0. After three days the number of viable cells were counted and plotted versus the M4N concentration. […] After 3 days, one-half of the M4N treated cells were given fresh media containing only 1% DMSO (M-D), while the rest of the cells were given fresh media with the same conditions (second media change). The cells were counted daily and plotted versus the time of treatment.

CEM-T4 line = test: CEM-T4 cell growth; type: cell-based, human; details: three days
Method: as §1

[3] = test system: HIV LTR promoter (Tat-transactivation); test: Tat-transactivation of HIV promoter activity in Cos cells, SEAP assay; type: cell-based; details: read-out: IC50 for inhibition of HIV Tat-regulated transactivation
Text: As reported previously, methylated NDGA derivatives can block Sp1 binding to the enhancer sites of a variety of viral promoters including HIV, ICP4 of HSV, E6/E7 gene of HPV (8, 9, 10). We further tested the G4N effect on the Tat-transactivation of HIV promoter activity in Cos cells by the SEAP assay as previously described. […] There were 60-fold or more increase in SEAP expression when Cos cells were cotransfected with the CMV promoter driven Tat gene (8). Such Tat-driven ransactivation of the HIV LTR promoter activity was previously shown to be Sp1 regulated (7, 8). In the presence of G4N, we observed inhibition of HIV transactivation in a dose-dependent fashion (FIG. 14). […]. The differences perhaps are due to the chemical nature of the test compounds affecting the drug uptake to the cells.

[4] = mice carrying multiple tumors, per mouse
[5] = mice with single tumors, per mouse

Compound: COc1ccc(C[C@@H](C)[C@@H](C)Cc2ccc(OC)c(OC)c2)cc1OC [M4N, tetra-O-methylnordihydroguaiaretic acid]
- body weight changes during the entire experimental period (C3 tumor [1]; Tables 1 and 2): insignificant
- tumor growth in mice (C3 tumor [1]; daily injection of 50 μl to 100 μl for several days): completely stop tumor growth
- average weight of treated lesions (C3 tumor [1]; mice carrying multiple tumors, drug injected into one of the tumors): 0.15 g
- Body wt. Day 1 (C3 tumor [1]; [4]): 17.8 g and 20.2 g and 17.5 g
- Body wt. Day 24 (C3 tumor [1]; [4]): 20.0 g and 17.9 g and 22.1 g
- Wt. Of Excised Lesion, Treated (C3 tumor [1]; mice carrying multiple tumors, drug injected directly to the tumor regions, per mouse): 0.11 g and 0.25 g and 0.1 g
- average weight of excised lesions (C3 tumor [1]; mice carrying single tumors, control group 1.48 g): 0.142 g
- Body wt. Day 1 (C3 tumor [1]; [5]): 19 g and 18.2 g and 19.5 g and 17 g and 18.9 g and 17.2 g and 17.3 g
- Body wt. Day 16 (C3 tumor [1]; [5]): 19.2 g and 17.6 g (2×) and 20.0 g
- Body wt. Day 24 (C3 tumor [1]; [5]): 20.4 g and 20.2 g
- Wt. Of Excised Lesion Day 16 (C3 tumor [1]; [5]): 0.2 g and 0.4 g and 0.1 g and 0 g
- Wt. Of Excised Lesion Day 24 (C3 tumor [1]; [5]): 0.1 g and 0 g
- Wt. Of Excised Lesion, taken on Day 15 (C3 tumor [1]; mouse 17, single tumor): 0.2** g
- histopathology of treated tumors (C3 tumor [2]): significant necrosis
- "threshold" concentration above which the percentage of viable cells decreases precipitously (TC-1 cell line): 40 µM
- growth of CEM-T4 line (CEM-T4 line): blocked
- IC50 [3]: 11 µM
